{"source": "patent US12570659B2", "about": "“Bicyclic heteroaryl compounds useful as IRAK4 inhibitors” (BRISTOL-MYERS SQUIBB COMPANY, priority 2019, dated 2026)", "key": {"[1]": {"target": "IRAK4 (Homo sapiens (Human), UniProt Q9NWZ3)", "sequence (Q9NWZ3 whole entry, species assumed)": "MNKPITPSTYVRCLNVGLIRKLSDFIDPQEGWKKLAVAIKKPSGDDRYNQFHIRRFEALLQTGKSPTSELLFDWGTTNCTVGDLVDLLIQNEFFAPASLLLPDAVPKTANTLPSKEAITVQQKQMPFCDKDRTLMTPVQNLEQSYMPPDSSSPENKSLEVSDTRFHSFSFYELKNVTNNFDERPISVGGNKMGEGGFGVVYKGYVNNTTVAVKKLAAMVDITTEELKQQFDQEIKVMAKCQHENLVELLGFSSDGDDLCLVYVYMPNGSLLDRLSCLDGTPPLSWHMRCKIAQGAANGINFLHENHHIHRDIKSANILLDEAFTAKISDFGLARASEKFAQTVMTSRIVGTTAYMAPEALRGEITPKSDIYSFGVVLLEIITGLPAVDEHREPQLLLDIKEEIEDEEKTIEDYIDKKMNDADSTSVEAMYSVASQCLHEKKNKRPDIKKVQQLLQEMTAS", "test": "IRAK4 Inhibition Assay", "format": "biochemical", "conditions": "ATP 500 μM; IRAK4 0.6 nM; 60 min room temperature", "protocol": "IRAK4 Inhibition Assay The assays were performed in U-bottom 384-well plates. […] The reaction was initiated by the combination of IRAK4 with substrates and test compounds. The reaction mixture was incubated at room temperature for 60 min. and terminated by adding 45 μL of 35 mM EDTA to each sample. The reaction mixture was analyzed on the Caliper LABCHIP® 3000 (Caliper, Hopkinton, MA) by electrophoretic separation of the fluorescent substrate and phosphorylated product. Inhibition data were calculated by comparison to no enzyme control reactions for 100% inhibition and vehicle-only reactions for 0% inhibition."}, "[2]": {"target": "JAK3 kinase (Homo sapiens (Human), UniProt P52333)", "sequence (P52333 whole entry)": "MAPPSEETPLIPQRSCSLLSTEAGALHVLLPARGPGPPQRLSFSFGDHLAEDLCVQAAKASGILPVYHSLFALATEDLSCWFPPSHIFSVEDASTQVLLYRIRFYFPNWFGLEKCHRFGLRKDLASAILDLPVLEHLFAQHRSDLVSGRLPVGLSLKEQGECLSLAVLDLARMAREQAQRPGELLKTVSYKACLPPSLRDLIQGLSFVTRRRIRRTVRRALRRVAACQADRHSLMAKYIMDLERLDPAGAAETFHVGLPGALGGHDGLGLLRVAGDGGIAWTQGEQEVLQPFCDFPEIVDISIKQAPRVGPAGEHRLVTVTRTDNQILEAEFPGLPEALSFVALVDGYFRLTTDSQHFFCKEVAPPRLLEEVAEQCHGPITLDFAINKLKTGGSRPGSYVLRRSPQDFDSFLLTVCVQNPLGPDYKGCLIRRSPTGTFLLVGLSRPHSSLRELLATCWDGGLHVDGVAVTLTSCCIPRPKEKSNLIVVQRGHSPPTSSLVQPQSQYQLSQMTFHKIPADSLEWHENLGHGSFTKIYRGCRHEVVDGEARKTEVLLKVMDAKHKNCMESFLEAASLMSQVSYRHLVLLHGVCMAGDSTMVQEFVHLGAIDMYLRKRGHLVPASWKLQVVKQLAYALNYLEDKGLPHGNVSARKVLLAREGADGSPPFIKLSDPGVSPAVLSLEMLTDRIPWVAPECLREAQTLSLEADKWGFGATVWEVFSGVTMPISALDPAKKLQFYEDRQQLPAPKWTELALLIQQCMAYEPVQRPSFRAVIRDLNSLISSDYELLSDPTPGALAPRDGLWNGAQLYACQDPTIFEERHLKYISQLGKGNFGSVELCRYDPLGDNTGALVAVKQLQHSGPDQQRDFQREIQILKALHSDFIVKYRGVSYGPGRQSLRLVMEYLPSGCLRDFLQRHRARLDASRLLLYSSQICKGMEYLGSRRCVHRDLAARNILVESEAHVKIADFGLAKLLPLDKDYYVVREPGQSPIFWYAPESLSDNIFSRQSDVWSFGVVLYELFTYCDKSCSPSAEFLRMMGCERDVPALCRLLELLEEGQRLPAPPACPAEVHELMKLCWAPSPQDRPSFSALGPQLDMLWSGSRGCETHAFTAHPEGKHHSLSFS", "test": "JAK3 Homogeneous Time Resolved Fluorescence (HTRF) Assay", "format": "binding", "conditions": "for pIC50: competition binding with fluorescein-labeled ATP competitive probe; for Ratio of JAK3 IC50 to IRAK4 IC50: selectivity for IRAK4 over JAK3", "protocol": "JAK3 Homogeneous Time Resolved Fluorescence (HTRF) Assay\nA time resolved FRET-based competition binding assay was used to assess test article binding to JAK3 kinase. His-tagged or GST-tagged kinase at a concentration of 1 nM was incubated with 0.2 nM Tb-labeled detection antibody (anti-His or anti-GST), test compound, and fluorescein-labeled ATP competitive probe at a concentration corresponding to the probe's equilibrium dissociation constant for one hour. Fluorescence at 495 nm and 520 nm was measured using an EnVision microplate reader to quantify FRET between Tb-labeled detection antibody and fluorescein-labeled probe. Background subtracted FRET ratios were normalized to the maximum signal obtained in the absence of test compound. These values were converted to a percent inhibition. Percent inhibition was determined for test compounds at 11 concentrations. The IC50, defined as the concentration of the competing test compound needed to reduce specific binding of the probe by 50%, was calculated using the 4 parameter logistic equation to fit the data."}}, "note": "pIC50: −log10 of the molar value.", "data": [{"smiles": "CC(C)Nc1c(C(=O)NC[C@@H](F)C(C)(C)O)cnn2cc(-c3ccc(C#N)nc3)nc12", "note": "[Example 101, (R)-2-(6-cyanopyridin-3-yl)-N-(2-fluoro-3-hydroxy-3-methylbutyl)-8-(isopropylamino)imidazo[1,2-b]pyridazine-7-carboxamide]", "values": [{"measurement": "pIC50", "setting": "[1]", "value": 7.15}, {"measurement": "pIC50", "setting": "[2]", "value": "< 4.30"}, {"measurement": "Ratio of JAK3 IC50 to IRAK4 IC50", "setting": "[2]", "value": ">714"}]}, {"smiles": "COc1cc(-c2cc3c(NC(C)C)c(C(=O)N[C@H]4CC[C@H](O)CC4)cnn3c2)c(F)cn1", "note": "[Example 57, 6-(5-fluoro-2-methoxypyridin-4-yl)-N-((1r,4r)-4-hydroxycyclohexyl)-4-(isopropylamino)pyrrolo[1,2-b]pyridazine-3-carboxamide]", "values": [{"measurement": "pIC50", "setting": "[1]", "value": 7.70}, {"measurement": "pIC50", "setting": "[2]", "value": "< 4.30"}, {"measurement": "Ratio of JAK3 IC50 to IRAK4 IC50", "setting": "[2]", "value": ">2500"}]}, {"smiles": "CC(C)Nc1c(C(=O)NCCNS(C)(=O)=O)cnc2cc(-c3ccncc3F)nn12", "note": "[Example 161, 2-(3-fluoropyridin-4-yl)-7-(isopropylamino)-N-(2-(methylsulfonamido)ethyl) pyrazolo[1,5-a]pyrimidine-6-carboxamide]", "values": [{"measurement": "pIC50", "setting": "[1]", "value": 6.80}, {"measurement": "pIC50", "setting": "[2]", "value": "< 5.00"}, {"measurement": "Ratio of JAK3 IC50 to IRAK4 IC50", "setting": "[2]", "value": ">63"}]}, {"smiles": "Cc1cc(-c2cc3c(NCCC(C)(C)O)c(C(=O)NC[C@@H](F)C(C)(C)O)cnn3c2)ccn1", "note": "[Example 23, (R)—N-(2-fluoro-3-hydroxy-3-methylbutyl)-4-((3-hydroxy-3-methylbutyl)amino)-6-(2-methylpyridin-4-yl)pyrrolo[1,2-b]pyridazine-3-carboxamide]", "values": [{"measurement": "pIC50", "setting": "[1]", "value": 6.96}, {"measurement": "pIC50", "setting": "[2]", "value": "< 4.30"}, {"measurement": "Ratio of JAK3 IC50 to IRAK4 IC50", "setting": "[2]", "value": ">455"}]}, {"smiles": "CC(C)Nc1c(C(=O)NC[C@@H](F)C(C)(C)O)cnn2cc(-c3ccccn3)cc12", "note": "[Example 16, (R)—N-(2-fluoro-3-hydroxy-3-methylbutyl)-4-(isopropylamino)-6-(pyridin-2-yl)pyrrolo[1,2-b]pyridazine-3-carboxamide]", "values": [{"measurement": "pIC50", "setting": "[1]", "value": 7.77}, {"measurement": "pIC50", "setting": "[2]", "value": "< 4.30"}, {"measurement": "Ratio of JAK3 IC50 to IRAK4 IC50", "setting": "[2]", "value": ">2941"}]}, {"smiles": "CC(C)Nc1c(C(=O)NCCN2CCOCC2)cnn2cc(-c3ccncc3F)nc12", "note": "[Example 106, 2-(3-fluoropyridin-4-yl)-8-(isopropylamino)-N-(2-morpholinoethyl)imidazo[1,2-b]pyridazine-7-carboxamide]", "values": [{"measurement": "pIC50", "setting": "[1]", "value": 7.66}, {"measurement": "pIC50", "setting": "[2]", "value": "< 4.30"}, {"measurement": "Ratio of JAK3 IC50 to IRAK4 IC50", "setting": "[2]", "value": ">2273"}]}, {"smiles": "CC(C)(O)CCNc1c(C(=O)NC[C@@H](F)C(C)(C)O)cnn2cc(-c3cccnc3F)cc12", "note": "[Example 22, (R)—N-(2-fluoro-3-hydroxy-3-methylbutyl)-6-(2-fluoropyridin-3-yl)-4-((3-hydroxy-3-methylbutyl)amino)pyrrolo[1,2-b]pyridazine-3-carboxamide]", "values": [{"measurement": "pIC50", "setting": "[1]", "value": 6.74}, {"measurement": "pIC50", "setting": "[2]", "value": "< 4.30"}, {"measurement": "Ratio of JAK3 IC50 to IRAK4 IC50", "setting": "[2]", "value": ">278"}]}, {"smiles": "CC(C)Nc1c(C(=O)NC[C@@H](F)C(C)(C)O)cnn2cc(-c3cnn4cc(Cl)cnc34)cc12", "note": "[Example 38, (R)-6-(6-chloropyrazolo[1,5-a]pyrimidin-3-yl)-N-(2-fluoro-3-hydroxy-3-methylbutyl)-4-(isopropylamino)pyrrolo[1,2-b]pyridazine-3-carboxamide]", "values": [{"measurement": "pIC50", "setting": "[1]", "value": 7.41}, {"measurement": "pIC50", "setting": "[2]", "value": "< 5.00"}, {"measurement": "Ratio of JAK3 IC50 to IRAK4 IC50", "setting": "[2]", "value": ">254"}]}, {"smiles": "CC(C)Nc1c(C(=O)NC[C@@H](F)C(C)(C)O)cnn2cc(-n3ncc4cncnc43)cc12", "note": "[Example 37, (R)—N-(2-fluoro-3-hydroxy-3-methylbutyl)-4-(isopropylamino)-6-(1H-pyrazolo[3,4-d]pyrimidin-1-yl)pyrrolo[1,2-b]pyridazine-3-carboxamide]", "values": [{"measurement": "pIC50", "setting": "[1]", "value": 8.42}, {"measurement": "pIC50", "setting": "[2]", "value": "< 4.30"}, {"measurement": "Ratio of JAK3 IC50 to IRAK4 IC50", "setting": "[2]", "value": ">13158"}]}, {"smiles": "CC(C)Nc1c(C(=O)NC[C@@H](F)C(C)(C)O)cnc2cc(-c3ccccc3F)nn12", "note": "[Example 135, (R)—N-(2-fluoro-3-hydroxy-3-methylbutyl)-2-(2-fluorophenyl)-7-(isopropylamino)pyrazolo[1,5-a]pyrimidine-6-carboxamide]", "values": [{"measurement": "pIC50", "setting": "[1]", "value": 7.66}, {"measurement": "pIC50", "setting": "[2]", "value": "< 5.00"}, {"measurement": "Ratio of JAK3 IC50 to IRAK4 IC50", "setting": "[2]", "value": ">455"}]}, {"smiles": "CC(C)(O)[C@H](F)CNC(=O)c1cnn2cc(-c3cccnc3)cc2c1NC1CCOCC1", "note": "[Example 6, (R)—N-(2-fluoro-3-hydroxy-3-methylbutyl)-6-(pyridin-3-yl)-4-((tetrahydro-2H-pyran-4-yl)amino) pyrrolo[1,2-b] pyridazine-3-carboxamide]", "values": [{"measurement": "pIC50", "setting": "[1]", "value": 7.27}, {"measurement": "pIC50", "setting": "[2]", "value": "< 4.30"}, {"measurement": "Ratio of JAK3 IC50 to IRAK4 IC50", "setting": "[2]", "value": ">926"}]}, {"smiles": "CC(C)Nc1c(C(=O)NC[C@@H](F)C(C)(C)O)cnc2cc(-c3cncnc3)nn12", "note": "[Example 127, (R)—N-(2-fluoro-3-hydroxy-3-methylbutyl)-7-(isopropylamino)-2-(pyrimidin-5-yl)pyrazolo[1,5-a]pyrimidine-6-carboxamide]", "values": [{"measurement": "pIC50", "setting": "[1]", "value": 6.77}, {"measurement": "pIC50", "setting": "[2]", "value": "< 5.00"}, {"measurement": "Ratio of JAK3 IC50 to IRAK4 IC50", "setting": "[2]", "value": ">59"}]}, {"smiles": "CC(C)Nc1c(C(=O)NC[C@@H](F)C(C)(C)O)cnn2cc(-c3ccnn3C)cc12", "note": "[Example 33, (R)—N-(2-fluoro-3-hydroxy-3-methylbutyl)-4-(isopropylamino)-6-(1-methyl-1H-pyrazol-5-yl) pyrrolo[1,2-b]pyridazine-3-carboxamide]", "values": [{"measurement": "pIC50", "setting": "[1]", "value": 7.59}, {"measurement": "pIC50", "setting": "[2]", "value": "< 4.30"}, {"measurement": "Ratio of JAK3 IC50 to IRAK4 IC50", "setting": "[2]", "value": ">1923"}]}, {"smiles": "CC(C)(O)[C@H](F)CNC(=O)c1cnn2cc(-c3ccc(C#N)c(F)c3)cc2c1NC1CCOCC1", "note": "[Example 12, (R)-6-(4-cyano-3-fluorophenyl)-N-(2-fluoro-3-hydroxy-3-methylbutyl)-4-((tetrahydro-2H-pyran-4-yl)amino)pyrrolo[1,2-b]pyridazine-3-carboxamide]", "values": [{"measurement": "pIC50", "setting": "[1]", "value": 6.60}, {"measurement": "pIC50", "setting": "[2]", "value": "< 4.30"}, {"measurement": "Ratio of JAK3 IC50 to IRAK4 IC50", "setting": "[2]", "value": ">200"}]}, {"smiles": "CC(C)Nc1c(C(=O)NC[C@@H](F)C(C)(C)O)cnn2cc(-c3ccncc3F)cc12", "note": "[Example 47, (R)—N-(2-fluoro-3-hydroxy-3-methylbutyl)-6-(3-fluoropyridin-4-yl)-4-(isopropylamino)pyrrolo[1,2-b]pyridazine-3-carboxamide]", "values": [{"measurement": "pIC50", "setting": "[1]", "value": 8.46}, {"measurement": "pIC50", "setting": "[2]", "value": "< 4.30"}, {"measurement": "Ratio of JAK3 IC50 to IRAK4 IC50", "setting": "[2]", "value": ">14286"}]}, {"smiles": "CC(C)Nc1c(C(=O)NCCN2CCOCC2)cnn2cc(-c3cn[nH]c3)nc12", "note": "[Example 110, 8-(isopropylamino)-N-(2-morpholinoethyl)-2-(1H-pyrazol-4-yl) imidazo[1,2-b]pyridazine-7-carboxamide]", "values": [{"measurement": "pIC50", "setting": "[1]", "value": 6.82}, {"measurement": "pIC50", "setting": "[2]", "value": "< 4.30"}, {"measurement": "Ratio of JAK3 IC50 to IRAK4 IC50", "setting": "[2]", "value": ">333"}]}, {"smiles": "CC(=O)N[C@H]1CC[C@H](NC(=O)c2cnn3cc(-c4ccc(C(N)=O)cc4)cc3c2NC(C)C)CC1", "note": "[Example 74, N-((1r,4r)-4-acetamidocyclohexyl)-6-(4-carbamoylphenyl)-4-(isopropylamino)pyrrolo[1,2-b] pyridazine-3-carboxamide]", "values": [{"measurement": "pIC50", "setting": "[1]", "value": 7.02}, {"measurement": "pIC50", "setting": "[2]", "value": "< 4.30"}, {"measurement": "Ratio of JAK3 IC50 to IRAK4 IC50", "setting": "[2]", "value": ">521"}]}, {"smiles": "CC(C)(O)CCNc1c(C(=O)NC[C@@H](F)C(C)(C)O)cnn2cc(-c3ccc(F)nc3)cc12", "note": "[Example 21, (R)—N-(2-fluoro-3-hydroxy-3-methylbutyl)-6-(6-fluoropyridin-3-yl)-4-((3-hydroxy-3-methylbutyl)amino)pyrrolo[1,2-b] pyridazine-3-carboxamide]", "values": [{"measurement": "pIC50", "setting": "[1]", "value": 6.77}, {"measurement": "pIC50", "setting": "[2]", "value": "< 4.30"}, {"measurement": "Ratio of JAK3 IC50 to IRAK4 IC50", "setting": "[2]", "value": ">294"}]}, {"smiles": "CC(C)Nc1c(C(=O)NC[C@@H](F)C(C)(C)O)cnc2cc(-c3ncco3)nn12", "note": "[Example 134, (R)—N-(2-fluoro-3-hydroxy-3-methylbutyl)-7-(isopropylamino)-2-(oxazol-2-yl)pyrazolo[1,5-a]pyrimidine-6-carboxamide]", "values": [{"measurement": "pIC50", "setting": "[1]", "value": 6.66}, {"measurement": "pIC50", "setting": "[2]", "value": "< 4.30"}, {"measurement": "Ratio of JAK3 IC50 to IRAK4 IC50", "setting": "[2]", "value": ">227"}]}]}
